Active and inactive are the calls of the source. No rule for the calls is given here.
System: CCRIS mutagenicity, Ames/micronucleus/aberration tests
Test: CCRIS mutagenicity studies
[1] = Test System: AMES SALMONELLA TYPHIMURIUM, Strain/Indicator: TA98, Metabolic Activation: NONE, Method: STANDARD PLATE
[2] = Test System: AMES SALMONELLA TYPHIMURIUM, Strain/Indicator: TA98, Metabolic Activation: RAT, LIVER, S-9, AROCLOR 1254, Method: STANDARD PLATE
[3] = Test System: AMES SALMONELLA TYPHIMURIUM, Strain/Indicator: TA100, Metabolic Activation: NONE, Method: STANDARD PLATE
[4] = Test System: AMES SALMONELLA TYPHIMURIUM, Strain/Indicator: TA100, Metabolic Activation: RAT, LIVER, S-9, AROCLOR 1254, Method: STANDARD PLATE

## O.O.O.O=C([O-])[C@H]([O-])[C@@H]([O-])C(=O)[O-].O=C([O-])[C@H]([O-])[C@@H]([O-])C(=O)[O-].[K+].[K+].[Sb+3].[Sb+3]
Test System: AMES SALMONELLA TYPHIMURIUM, Strain/Indicator: TA98, Metabolic Activation: HAMSTER, LIVER, S-9, AROCLOR 1254, Method: STANDARD PLATE
  mutagenic call: inactive; negative
[1]
  mutagenic call: inactive; negative
[2]
  mutagenic call: inactive; negative
Test System: AMES SALMONELLA TYPHIMURIUM, Strain/Indicator: TA100, Metabolic Activation: HAMSTER, LIVER, S-9, AROCLOR 1254, Method: STANDARD PLATE
  mutagenic call: inactive; negative
[3]
  mutagenic call: inactive; negative
[4]
  mutagenic call: inactive; negative
Test System: AMES SALMONELLA TYPHIMURIUM, Strain/Indicator: TA1535, Metabolic Activation: HAMSTER, LIVER, S-9, AROCLOR 1254, Method: STANDARD PLATE
  mutagenic call: inactive; negative
Test System: AMES SALMONELLA TYPHIMURIUM, Strain/Indicator: TA1535, Metabolic Activation: NONE, Method: STANDARD PLATE
  mutagenic call: inactive; negative
Test System: AMES SALMONELLA TYPHIMURIUM, Strain/Indicator: TA1535, Metabolic Activation: RAT, LIVER, S-9, AROCLOR 1254, Method: STANDARD PLATE
  mutagenic call: inactive; negative
Test System: AMES SALMONELLA TYPHIMURIUM, Strain/Indicator: TA1537, Metabolic Activation: HAMSTER, LIVER, S-9, AROCLOR 1254, Method: STANDARD PLATE
  mutagenic call: inactive; negative
Test System: AMES SALMONELLA TYPHIMURIUM, Strain/Indicator: TA1537, Metabolic Activation: NONE, Method: STANDARD PLATE
  mutagenic call: inactive; negative
Test System: AMES SALMONELLA TYPHIMURIUM, Strain/Indicator: TA1537, Metabolic Activation: RAT, LIVER, S-9, AROCLOR 1254, Method: STANDARD PLATE
  mutagenic call: inactive; negative
Test System: AMES SALMONELLA TYPHIMURIUM, Strain/Indicator: TA1538, Metabolic Activation: HAMSTER, LIVER, S-9, AROCLOR 1254, Method: STANDARD PLATE
  mutagenic call: inactive; negative
Test System: AMES SALMONELLA TYPHIMURIUM, Strain/Indicator: TA1538, Metabolic Activation: NONE, Method: STANDARD PLATE
  mutagenic call: inactive; negative
Test System: AMES SALMONELLA TYPHIMURIUM, Strain/Indicator: TA1538, Metabolic Activation: RAT, LIVER, S-9, AROCLOR 1254, Method: STANDARD PLATE
  mutagenic call: inactive; negative
Test System: MOUSE LYMPHOMA, Strain/Indicator: L5178Y (TK+/TK-), Metabolic Activation: NONE, Method: SUSPENSION/PLATE
  mutagenic call: active; positive. reevaluation of results: positive
Test System: MOUSE LYMPHOMA, Strain/Indicator: L5178Y (TK+/TK-), Metabolic Activation: RAT, LIVER, S-9, AROCLOR 1254, Method: SUSPENSION/PLATE
  mutagenic call: active; positive. reevaluation of results: positive

## Nc1c(Br)cc(Br)c2c1C(=O)c1ccccc1C2=O
End Point: IN VITRO CHROMOSOMAL ABERRATIONS, Test System: CHO-LB CELLS, Metabolic Activation: NONE
  mutagenic call: inactive; negative
End Point: IN VITRO CHROMOSOMAL ABERRATIONS, Test System: CHO-LB CELLS, Metabolic Activation: RAT, LIVER, S-9, AROCLOR 1254
  mutagenic call: inactive; negative
Test System: AMES SALMONELLA TYPHIMURIUM, Strain/Indicator: TA98, Metabolic Activation: HAMSTER, LIVER, S-9, AROCLOR 1254 (10%), Method: PREINCUBATION
  mutagenic call: inactive; negative
Test System: AMES SALMONELLA TYPHIMURIUM, Strain/Indicator: TA98, Metabolic Activation: HAMSTER, LIVER, S-9, AROCLOR 1254, Method: PREINCUBATION
  mutagenic call: inactive; negative
Test System: AMES SALMONELLA TYPHIMURIUM, Strain/Indicator: TA98, Metabolic Activation: NONE, Method: PREINCUBATION
  mutagenic call: active; positive
Test System: AMES SALMONELLA TYPHIMURIUM, Strain/Indicator: TA98, Metabolic Activation: RAT, LIVER, S-9, AROCLOR 1254 (10%), Method: PREINCUBATION
  mutagenic call: inactive; negative
Test System: AMES SALMONELLA TYPHIMURIUM, Strain/Indicator: TA98, Metabolic Activation: RAT, LIVER, S-9, AROCLOR 1254, Method: PREINCUBATION
  mutagenic call: inactive; negative
Test System: AMES SALMONELLA TYPHIMURIUM, Strain/Indicator: TA100, Metabolic Activation: HAMSTER, LIVER, S-9, AROCLOR 1254, Method: PREINCUBATION
  mutagenic call: inactive; negative
Test System: AMES SALMONELLA TYPHIMURIUM, Strain/Indicator: TA100, Metabolic Activation: NONE, Method: PREINCUBATION
  mutagenic call: inactive; negative
Test System: AMES SALMONELLA TYPHIMURIUM, Strain/Indicator: TA100, Metabolic Activation: RAT, LIVER, S-9, AROCLOR 1254, Method: PREINCUBATION
  mutagenic call: inactive; negative
Test System: AMES SALMONELLA TYPHIMURIUM, Strain/Indicator: TA1535, Metabolic Activation: HAMSTER, LIVER, S-9, AROCLOR 1254 (10%), Method: PREINCUBATION
  mutagenic call: inactive; negative
Test System: AMES SALMONELLA TYPHIMURIUM, Strain/Indicator: TA1535, Metabolic Activation: HAMSTER, LIVER, S-9, AROCLOR 1254, Method: PREINCUBATION
  mutagenic call: inactive; negative
Test System: AMES SALMONELLA TYPHIMURIUM, Strain/Indicator: TA1535, Metabolic Activation: NONE, Method: PREINCUBATION
  mutagenic call: inactive; negative
Test System: AMES SALMONELLA TYPHIMURIUM, Strain/Indicator: TA1535, Metabolic Activation: RAT, LIVER, S-9, AROCLOR 1254 (10%), Method: PREINCUBATION
  mutagenic call: inactive; negative
Test System: AMES SALMONELLA TYPHIMURIUM, Strain/Indicator: TA1535, Metabolic Activation: RAT, LIVER, S-9, AROCLOR 1254, Method: PREINCUBATION
  mutagenic call: inactive; negative
Test System: AMES SALMONELLA TYPHIMURIUM, Strain/Indicator: TA1537, Metabolic Activation: HAMSTER, LIVER, S-9, AROCLOR 1254, Method: PREINCUBATION
  mutagenic call: inactive; negative
Test System: AMES SALMONELLA TYPHIMURIUM, Strain/Indicator: TA1537, Metabolic Activation: NONE, Method: PREINCUBATION
  mutagenic call: active; positive
Test System: AMES SALMONELLA TYPHIMURIUM, Strain/Indicator: TA1537, Metabolic Activation: RAT, LIVER, S-9, AROCLOR 1254, Method: PREINCUBATION
  mutagenic call: active; positive

## Cn1c2ccc3ccccc3c2c2c3ccccc3ccc21
[4]
  mutagenic call: active; positive
Test System: AMES SALMONELLA TYPHIMURIUM, Strain/Indicator: TM677, Metabolic Activation: RAT, LIVER, S-9, 3-METHYLCHOLANTHRENE (1%), Method: PREINCUBATION
  mutagenic call: inactive; negative
Test System: AMES SALMONELLA TYPHIMURIUM, Strain/Indicator: TM677, Metabolic Activation: RAT, LIVER, S-9, 3-METHYLCHOLANTHRENE (10%), Method: PREINCUBATION
  mutagenic call: inactive; negative
Test System: AMES SALMONELLA TYPHIMURIUM, Strain/Indicator: TM677, Metabolic Activation: RAT, LIVER, S-9, AROCLOR 1254 (10%), Method: PREINCUBATION
  mutagenic call: inactive; negative

## CC(=O)Nc1ccc2c(c1OC(=O)c1ccccc1)Cc1ccccc1-2
[2]
  mutagenic call: inactive; negative

## CCCCN(N=O)C(=O)OCC
Test System: AMES SALMONELLA TYPHIMURIUM, Strain/Indicator: TA98, Metabolic Activation: RAT, LIVER, S-9, KC500 OR PHENOBARBITAL, Method: LIQUID SUSPENSION
  mutagenic call: active; positive
Test System: AMES SALMONELLA TYPHIMURIUM, Strain/Indicator: TA100, Metabolic Activation: RAT, LIVER, S-9, KC500 OR PHENOBARBITAL, Method: LIQUID SUSPENSION
  mutagenic call: active; positive

## O=C1CCc2c1cc(C(F)(F)F)c1c2ccc2ccccc21
Test System: AMES SALMONELLA TYPHIMURIUM, Strain/Indicator: TA100, Metabolic Activation: RAT, LIVER, S-9, AROCLOR 1254
  mutagenic call: active; positive

## CC(C)c1cccc(C(C)C)c1O
End Point: IN VIVO CHROMOSOMAL ABERRATIONS, Test System: PERIPHERAL BLOOD LYMPHOCYTES, Species: HUMAN, Strain/Sex: MALE, FEMALE, Route: IV
  mutagenic call: inactive; negative

## CN1CCN(c2ccc3nc(-c4ccc5nc(-c6ccc(O)cc6)[nH]c5c4)[nH]c3c2)CC1
[1]
  mutagenic call: inactive; negative
[3]
  mutagenic call: inactive; negative
Test System: AMES SALMONELLA TYPHIMURIUM, Strain/Indicator: TA102, Metabolic Activation: NONE, Method: STANDARD PLATE
  mutagenic call: inactive; negative
